Literature values in patent US6720472B2, “HMGI proteins in cancer and obesity” (University of Medicine and Dentistry of New Jersey, priority 1996, dated 2004).
“Also recorded” adds a separate entry of the source. Like-named read-outs stand apart in the source and are kept apart here.

Tests used:
HMG-I proteins = settings: in vitro, A T-rich DNA
[1] = test system: solid tumors (Ehrlich carcinoma, S180, Walker carcinoma, and Oberling-Guerin-Guerin myeloma)
[2] = test system: ascites tumors [Ehrlich and sarcoma 180 (S180)]
[3] = test system: B-DNA dodecamer of sequence C-G-C-G-A-A-T-T-BrC-G-C-G; settings: X-ray analysis of the complex

competition with the BD peptide and the HMG-I proteins for DNA binding (HMG-I proteins; listed as distamycin)	SMILES	competition with the BD peptide and the HMG-I proteins for DNA binding (HMG-I proteins)	growth of solid tumors [1]	inhibition on ascites tumors ([2]; Ehrlich and sarcoma 180 (S180) ascites tumors)	mitotic damages of tumor cells ([2]; Ehrlich ascites tumor)	mitotic index of the Ehrlich ascites tumor ([2]; Ehrlich ascites tumor)	binding site on DNA [3]
–	CN1CCN(c2ccc3[nH]c(-c4ccc5[nH]c(-c6ccc(O)cc6)nc5c4)nc3c2)CC1 [Hoechst 33258, Hoechst 33258 (bisbenzimide)]	compete with the HMGI proteins for binding to AT-rich DNA; also recorded: effectively compete	–	–	–	–	–
effectively compete	Cn1cc(NC(=O)c2cc(NC(=O)c3cc(NC=O)cn3C)cn2C)cc1C(=O)NCCC(=N)N [distamycin A]	compete with the HMGI proteins for binding to AT-rich DNA	delays the growth	strong inhibition	induces mitotic damages	decrease the mitotic index	–
–	Cn1cc(NC(=O)c2cc(NC(=O)CN=C(N)N)cn2C)cc1C(=O)NCCC(=N)N [netropsin]	compete with the HMGI proteins for binding to AT-rich DNA; also recorded: effectively compete	–	–	–	–	binds within the minor groove
